How the values were obtained:
[1] = system: V79 cells; assay: Clonogenic survival assay after single-agent treatment
Protocol: The surviving fraction SF of cells exposed to the agent was assessed with a clonogenic survival assay and plotted as a function of several different variables including extracellular concentration, <I>net, absorbed dose (Gy), and mean cellular activity (mBq/cell). […] Analogous to the cellular activity and absorbed dose required to achieve 37% survival, a37 and D37, the net mean lethal fluorescence intensity of the drug required to achieve 37% survival, <I>net,37, can be defined similarly and obtained from plots of SF versus <I>net.
A is the intracellular activity of ^210Po-citrate, absorbed dose to the cell nucleus, or drug concentration. Least squares fits of the survival data to this function were performed. The variable b is a fitted parameter.
Cells grown in 225-cm^2 flasks were trypsinized (0.25% trypsin, Gibco, catalog no. 25200-056), and MEMB was added to obtain 2×10^6 cells/mL. Aliquots of 1 mL were placed in Falcon 17×100 mm polypropylene tubes (BD, catalog no. 352018) and placed on a rocker-roller (Thermo Fisher, Fair Lawn, N.J.) for 3 hours at 37° C. with 5% CO2 and 95% air. After this conditioning period, cells were treated with drug or radiochemical. Cell cultures were exposed to radiochemical and drugs for 0.5 and 2.5 h, respectively.
One milliliter of MEMB containing ^210Po-citrate was added to the 1 mL of conditioned V79 cultures (2×10^6 cells/mL), to arrive at a concentration of 0-250 kBq/mL (pH 6.9-7.0). After incubating for 30 min, the cells were washed 2× with MEMB, resuspended in 2 mL of MEMB, and incubated on a rocker-roller for 2.5 h to simulate concomitant drug exposure. The cells were resuspended in a 5 mL of MEMB, passed 5× through a needle, and counted with a Beckman Coulter Model Z2 (Brea, Calif.). Aliquots (500 μL) of the cell suspension were transferred to vials, mixed with 5 mL Ecolume (MP Biomedical, Solon, Ohio, catalog no. 882470), and counted with a Beckman Coulter LS6500, and the mean activity per cell was determined (efficiency, 50% as per prior studies). Aliquots of about 5×10^5 cells were counted in triplicate for ^210Po activity and the cpm ranged from 10^3-10^5. The triplicate measurements kept statistical variations to a minimum. Each sample was serially diluted and plated in Falcon 60×15 mm tissue culture dishes for colony formation. Cultures were incubated for 7 days, and the colonies were fixed in 95% ethanol, stained with 0.01% Amido Black, washed in tap-water, air-dried, and counted.
After conditioning, the cell cultures were treated with daunomycin (Sigma, catalog no. D8809) or doxorubicin (Sigma, catalog no. 44583) to a final concentration of 0-10 μmol/L in MEMB. The tubes were returned to the rocker-roller for 2.5 h. The cells were then processed for colony formation as described above.

[2] = system: V79 cells; assay: Clonogenic survival after combined treatment with 210Po-citrate and drug (cocktails); assay type: cell-based, Chinese hamster; details: for dose dependence of the enhancement of α-particle radiotoxicity: 0.63 μM daunomycin or 2.50 μM doxorubicin with graded 210Po-citrate; for effect of drug on radiotoxicity of 210Po-citrate: concomitant treatment, survival corrected for drug toxicity
Text: To evaluate cytotoxicity of combined treatment of V79 cells with ^210Po-citrate and daunomycin, or ^210Po-citrate and doxorubicin, the surviving fraction of clonogens was plotted as a function of mean cellular uptake of ^210Po (FIG. 9) and as a function of mean absorbed dose to the cell nucleus. When cells were only treated with ^210Po-citrate, the survival curve can be described by a 1-component exponential function. When cells were concomitantly treated with a single drug concentration and varying amounts of ^210Po-citrate, the dose-response curves followed a 2-component exponential function. The data corresponding to the combined treatments were then corrected for drug toxicity, by dividing the surviving fraction for each datum point by the surviving fraction for drug alone (SF=0.10), and replotted in FIG. 9. Both of the corrected cell survival curves emerged below those obtained for ^210Po-citrate alone.

COc1cccc2c1C(=O)c1c(O)c3c(c(O)c1C2=O)C[C@@](O)(C(C)=O)C[C@@H]3O[C@H]1C[C@H](N)[C@H](O)[C@H](C)O1 [daunomycin]
relative cytotoxicity based on extracellular drug concentration ([1]; V79 cell cultures): more cytotoxic than doxorubicin | lethality of daunomycin relative to doxorubicin ([1]; low extracellular concentrations, V79 cells): ~5 × | dose dependence of the enhancement of α-particle radiotoxicity [2]: independent of radiation absorbed dose beyond about 0.5 Gy | effect of drug on radiotoxicity of 210Po-citrate [2]: enhance the radiotoxicity of α-particles

^210Po-citrate
cellular uptake of 210Po at the mean lethal dose ([1]; 37% survival): 0.21 mBq/cell | atoms of 210Po per cell at the mean lethal dose ([1]; corresponds to 0.21 mBq/cell): about 3600 atoms

COc1cccc2c1C(=O)c1c(O)c3c(c(O)c1C2=O)C[C@@](O)(C(=O)CO)C[C@@H]3O[C@H]1C[C@H](N)[C@H](O)[C@H](C)O1 [doxorubicin]
dose dependence of the enhancement of α-particle radiotoxicity [2]: dose-dependent increase | effect of drug on radiotoxicity of 210Po-citrate [2]: enhance the radiotoxicity of α-particles

Source: US9623262B2, “Methods and systems for determining the distribution of radiation dose and response” (priority 2013, dated 2017)
